EC50 data for seven compounds are collected here from patent US10336675B2, “Biaromatic vitamin D analogs” (DSM IP ASSETS B.V., priority 2015, dated 2019).

The structures appear in SMILES notation.

For this test, the target named is T1, human vitamin D receptor (VDR) (Homo sapiens, UniProt P11473).
T1 construct: expressed in transfected cells; host or cells: HEK293 cells (ATCC), transient transfection with a GATEWAY-compatible pCMV-BD vector
T1 sequence (P11473 127-423 limits assumed): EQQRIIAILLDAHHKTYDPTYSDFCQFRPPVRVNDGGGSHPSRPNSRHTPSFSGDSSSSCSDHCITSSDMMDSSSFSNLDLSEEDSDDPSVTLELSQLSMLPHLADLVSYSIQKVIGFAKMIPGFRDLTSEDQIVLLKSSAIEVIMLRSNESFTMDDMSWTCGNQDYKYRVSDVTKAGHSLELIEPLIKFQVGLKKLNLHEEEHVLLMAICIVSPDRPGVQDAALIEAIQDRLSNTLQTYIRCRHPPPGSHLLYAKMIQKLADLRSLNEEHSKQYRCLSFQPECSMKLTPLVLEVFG
Kind of test: Human vitamin D receptor (VDR) agonist activity: GAL4-VDR LBD luciferase transactivation assay in transiently transfected HEK293 cells. As to conditions: VDR LBD-GAL4 DBD fusion, pFR-Luc luciferase reporter, 16 h incubation, read-out: Effective concentrations of half maximal activation (EC50). The format is cell-based. The source says:
By way of example, the human vitamin D receptor (VDR) agonist activity of the claimed compounds can be tested using a cell based transactivation assay in an eukaryotic cell line. After a co-transfection, using a reporter plasmid construct and a hybrid receptor construct containing the ligand-binding domain of the human VDR linked to the DNA-binding domain of the yeast transcription factor GAL4, the cultured cells were stimulated by the VDR agonists. The hybrid VDR-GAL4 receptor binds the VDR agonists and transactivates luciferase reporter expression through the GAL4-response elements in the promoter of the luciferase gene (reporter construct). The VDR agonist binding and transactivation is determined by measuring the luciferase luminescence activity. The effective concentration of half maximal activation (EC50) was determined for the VDR agonists by means of dose-response experiments. The details of the protocol method of this test according to the invention are described in the example section.
Testing of the Human Vitamin D Receptor (VDR) Agonist Activity of the Compounds
The transient transfections were performed in HEK293 cells (ATCC, Molsheim, France) grown in minimum essential medium (Eagle) with Earle's balanced salt solution without L-glutamine and supplemented with 10% fetal bovine serum (Sigma-Aldrich Corp., St. Gallen, Switzerland), 2 mM glutamax (Life Technologies AG, Basel, Switzerland), 0.1 mM non-essential amino acids (Life Technologies), and 1 mM sodium pyruvate (Life Technologies) at 37° C. in 5% CO2. For transfection, 7.5×10^4 cells were plated per well (80 μl) in white 96-well cell culture plates with clear bottom (Corning, Basel, Switzerland) in minimum essential medium (Eagle) with Earle's balanced salt solution without L-glutamine and without phenol red supplemented with 10% charcoal-treated fetal bovine serum (HyClone Laboratories, Inc., Logan, Utah, USA), 2 mM glutamax, 0.1 mM non-essential amino acids, and 1 mM sodium pyruvate. The cells were transiently transfected before stimulation the next day at >80% confluence by polyethylene-imine-based transfection. Compound stocks were prepared in DMSO, pre-diluted in PBS (0.45% final DMSO concentration), and added in the respective dilution 5 h after the addition of the transfection mixture onto the cells. The cells were again incubated for additional 16 h before firefly and renilla luciferases activity was measured sequentially in the same cell extract using buffers according to established protocols (Promega AG, Dübendorf, Switzerland). Transfection efficiency was controlled to the pRL-TK renilla luciferase reporter expression.
On the technique in general: Reporter assays use an easily measured gene product as a stand-in for the process of interest.
For `CC/C(=C\C=C\C(O)(C(F)(F)F)C(F)(F)F)c1cccc(CCc2ccc(C(O)CCO)cc2)c1` (racemic) [I-b, 1-(4-(3-((3E,5E)-8,8,8-trifluoro-7-hydroxy-7-(trifluoromethyl)octa-3,5-dien-3-yl)phenethyl)phenyl)propane-1,3-diol], the EC50 was found to be 12 nM. The value for `CC/C(=C\C=C\C(O)(CC)CC)c1cccc(CCc2ccc(C(O)CCO)cc2)c1` (racemic) [I-c, 1-(4-(3-((3E,5E)-7-ethyl-7-hydroxynona-3,5-dien-3-yl)phenethyl)phenyl)propane-1,3-diol] was 13 nM; that for `CC/C(=C\C=C\C(O)(CC)CC)c1cccc(CCc2ccc(C(O)C(CO)CCCCO)cc2)c1` (stereo not shown) [Comp1, reference compound] was 111 nM; that for `CC/C(=C\C=C\C(O)(CC)CC)c1cccc(CCc2ccc(C(O)CC(C)O)cc2)c1` (stereo not shown) [I-a, 1-(4-(3-((3E,5E)-7-ethyl-7-hydroxynona-3,5-dien-3-yl)phenethyl)phenyl)butane-1,3-diol] was 4 nM. The value for `CC/C(=C\C=C\C(O)(CC)CC)c1cccc(CCc2ccc(C(O)C(C)CO)cc2)c1` (stereo not shown) [I-d, 1-(4-(3-((3E,5E)-7-ethyl-7-hydroxynona-3,5-dien-3-yl)phenethyl)phenyl)-2-methylpropane-1,3-diol] was 28 nM; that for `CC/C(=C\C=C\C(O)(CC)CC)c1cccc(CCc2ccc(C(O)C(CO)CCCO)cc2)c1` (stereo not shown) [I-e, 1-(4-(3-((3E,5E)-7-ethyl-7-hydroxynona-3,5-dien-3-yl)phenethyl)phenyl)-2-(hydroxymethyl)pentane-1,5-diol] was 30 nM. `CC/C(=C\C=C\C(O)(CC)CC)c1cccc(CCc2ccc(C(O)C(C)C(C)O)cc2)c1` (stereo not shown) [I-f, 1-(4-{2-[3-((1E,3E)-1,5-Diethyl-5-hydroxy-hepta-1,3-dienyl)-phenyl]-ethyl}-phenyl)-2-methylbutane-1,3-diol]: the EC50 was 34 nM.
